Target: T1, KRAS 4B G12C protein (Homo sapiens, UniProt P01116, G12C)
T1 construct: This protein contained 188 amino acids in total, including an N-terminal 6-Histidine tag; made in house; host or cells: E. coli BL21
Assay: In vitro covalent adduct formation (CAF) assay by LC-MS
Type: binding
Conditions: compound 10 μM, protein 5 μM, 22° C., percentage of protein bound by the compound
Summary of the method: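 Recombinant His-TEV-tagged KRAS 4B G12C (residues 1-169, E. coli) at 5 μM in Tris-buffered saline pH 7.4 was incubated with 10 μM compound (4% DMSO) at 22° C. for one hour, sampling over time. Intact-mass LC-MS free:adduct ratios gave % protein bound; duplicates.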

Compound	CAF (10 minutes/60 minutes) at 10 micromolar: 10 minutes	CAF (10 minutes/60 minutes) at 10 micromolar: 60 minutes
C=C(F)C(=O)N1CCN(c2nc(OC[C@@H]3CCCN3C)nc3c2CN(Cc2c(Cl)cccc2OC(F)F)C3)C[C@@H]1CC#N [1-104]	8%	48%
C=CC(=O)N1CCN(c2nc(OC[C@@H]3CCCN3C)nc3c2CN(Cc2c(Cl)cccc2OC(F)F)C3)C[C@H]1C [1-105]	0%/ 0%	0%/ 0%
C=CC(=O)N1CCN(c2nc(OC[C@@H]3CCCN3C)nc3c2CN(C2COc4ccccc42)C3)C[C@@H]1CC#N (stereo partly drawn) [1-106]	59%	75%
C=CC(=O)N1CCN(c2nc(OC[C@@H]3CCCN3C)nc3c2CN(Cc2c(Cl)cccc2OC)C3)C[C@@H]1CO [1-107]	0%	3%
C=CC(=O)N1CCN(c2nc(OC[C@@H]3CCCN3C)nc3c2CN(Cc2cccc4[nH]ncc24)C3)C[C@@H]1CC#N [1-108]	84%	97%
C=C(F)C(=O)N1CCN(c2nc(OC[C@@H]3CCCN3C)nc3c2CN(C2CCc4ccccc42)C3)C[C@@H]1CC#N (stereo partly drawn) [1-109]	48%	68%
C=CC(=O)N1CCN(c2nc(OCCN3CCOCC3)nc3c2CN(Cc2cc(OC)ccc2C)C3)[C@@H](C)C1 [1-110]	0%/ 0%	0%/ 0%
C=CC(=O)N1CCN(c2nc(OC[C@@H]3CCCN3C)nc3c2CN(C(C)c2c(O)cccc2F)C3)C[C@@H]1CC#N (stereo partly drawn) [1-111]	87%	96%
C=CC(=O)N1CCN(c2nc(OC[C@@H]3CCCN3C)nc3c2CN(Cc2c(F)cccc2Cl)C3)C[C@@H]1CC#N [1-112]	98%	99%
C=CC(=O)N1CCN(c2nc(OC[C@@H]3CCCN3C)nc3c2CN(Cc2ncccc2Cl)C3)C[C@@H]1CC#N [1-113]	59%	89%
C=CC(=O)N1C2COCC1CN(c1nc(OC[C@@H]3CCCN3C)nc3c1CN(Cc1cc(OC)ccc1Cl)C3)C2 [1-114]	0%/ 0%	0%/ 0%
C=CC(=O)N1CCN(c2nc(OC[C@@H]3CCCN3C)nc3c2CN(C2CCc4ccccc42)C3)C[C@@H]1CO (stereo partly drawn) [1-116]	2%	17%
C=CC(=O)N1CCN(c2nc(OC[C@@H]3CCCN3C)nc3c2CN(C2CCc4ccccc42)C3)C[C@@H]1C(O)C(F)(F)F (stereo partly drawn) [1-117]	0%	4%
C=CC(=O)N1CCN(c2nc(OC[C@@H]3CCCN3C)nc3c2CN(C2CCc4ccccc42)C3)C[C@@H]1C(O)C(F)(F)F (stereo partly drawn) [1-118]	0%/ 0%	0%/ 0%
C=CC(=O)N1CCN(c2nc(OC[C@@H]3CCCN3C)nc3c2CN(Cc2cnccc2Cl)C3)C[C@@H]1CC#N [1-119]	66%	94%
C=CC(=O)N1CCN(c2nc(OC[C@@H]3CCCN3C)nc3c2CN(C(C)c2ccccc2Cl)C3)C[C@@H]1CC#N (stereo partly drawn) [1-120]	57%	74%
C#CC1CN(c2nc(OC[C@@H]3CCCN3C)nc3c2CN(C2CCc4ccccc42)C3)CCN1C(=O)C=C (stereo partly drawn) [1-121]	0%	4%
C=CC(=O)N1CCN(c2nc(OC[C@@H]3CCC(=O)N3C)nc3c2CN(C2CCc4ccccc42)C3)C[C@@H]1CC#N (stereo partly drawn) [1-122]	21%	57%
C=CC(=O)N1CCN(c2nc(OCCN3CCOCC3)nc3c2CN(Cc2cc(O)ccc2C)C3)[C@@H](C)C1 [1-123]	0%	2%
C=CC(=O)N1C2COCC1CN(c1nc(OC[C@@H]3CCCN3C)nc3c1CN(Cc1cc(O)ccc1Cl)C3)C2 [1-124]	21%	67%
C=CC(=O)N1CCN(c2nc(OC[C@@H]3CCCN3C)nc3c2CN(Cc2c(Cl)cccc2OC)C3)C[C@@H]1CC(F)(F)F [1-125]	0%/ 0%	0%/ 0%

Compound	CAF (10 minutes/60 minutes) at 10 micromolar: 10 minutes	CAF (10 minutes/60 minutes) at 10 micromolar: 60 minutes
C=C(F)C(=O)N1CCN(c2nc(OC[C@@H]3CCCN3C)nc3c2CN(C2CCCc4cccc(Cl)c42)C3)C[C@@H]1CC#N (stereo partly drawn) [1-126, 2-[(2S)-4-[6-(8-chloro-1,2,3,4-tetrahydronaphthalen-1-yl)-2-{[(2S)-1-methylpyrrolidin-2-yl]methoxy}-5H,7H-pyrrolo[3,4-d]pyrimidin-4-yl]-1-(2-fluoroprop-2-enoyl)piperazin-2-yl]acetonitrile]	53%	88%
C=C(F)C(=O)N1CCN(c2nc(OC[C@@H]3CCCN3C)nc3c2CN(C2CCc4cccc(Cl)c42)C3)C[C@@H]1CC#N (stereo partly drawn) [1-127]	64%	95%
C=CC(=O)N1CCN(c2nc(OC[C@@H]3C[C@H](F)CN3C)nc3c2CN(C2CCc4ccccc42)C3)C[C@@H]1CC#N (stereo partly drawn) [1-128]	52%	63%
C=CC(=O)N1CCN(c2nc(OCCOC)nc3c2CN(C2CCc4ccccc42)C3)C[C@@H]1CC#N (stereo partly drawn) [1-129]	26%	64%
C=CC(=O)N1CCN(c2nc(OCCCN3CCOCC3)nc3c2CN(C2CCc4ccccc42)C3)C[C@@H]1CC#N (stereo partly drawn) [1-131]	76%	97%
C=CC(=O)N1CCN(c2nc(OCc3ccccn3)nc3c2CN(C2CCc4ccccc42)C3)C[C@@H]1CC#N (stereo partly drawn) [1-132]	24%	68%
C=CC(=O)N1CCN(c2nc(OC[C@@H]3CC(F)(F)CN3C)nc3c2CN(C2CCc4ccccc42)C3)C[C@@H]1CC#N (stereo partly drawn) [1-133]	84%	90%
C=CC(=O)N1CCN(c2nc(OCCN3CCOCC3)nc3c2CN(Cc2cc(O)ccc2Cl)C3)C[C@@H]1CC#N [1-134]	98%/ 98%	98%/ 98%
C=CC(=O)N1CCN(c2nc(O)nc3c2CN(C2CCc4ccccc42)C3)C[C@@H]1CC#N (stereo partly drawn) [1-135]	0%	7%
C=CC(=O)N1CCN(c2nc(SC)nc3c2CN(C2CCc4ccccc42)C3)C[C@@H]1CC#N (stereo partly drawn) [1-136]	16%	56%
C=C(F)C(=O)N1CCN(c2nc(OC[C@@H]3CCCN3C)nc3c2CN(C2CCc4ccccc42)C3)C[C@@H]1CC#N (stereo partly drawn) [1-138]	38%	54%
C=C(F)C(=O)N1CCN(c2nc(OC[C@@H]3CCCN3C)nc3c2CN(C2CCc4ccccc42)C3)C[C@@H]1CC#N (stereo partly drawn) [1-139]	0%	5%
C=C(F)C(=O)N1CCN(c2nc(OCc3cncn3C)nc3c2CN(C2CCc4ccccc42)C3)C[C@@H]1CC#N (stereo partly drawn) [1-140]	0%/ 0%	0%/ 0%
C=CC(=O)N1CCN(c2nc(OC[C@@H]3CCCN3CC(F)(F)F)nc3c2CN(C2CCc4ccccc42)C3)C[C@@H]1CC#N (stereo partly drawn) [1-141]	51%	71%
C=CC(=O)N1CCN(c2nc(OCC3CC3)nc3c2CN(C2CCc4ccccc42)C3)C[C@@H]1CC#N (stereo partly drawn) [1-142]	7%	36%
C=CC(=O)N1CCN(c2nc(OC[C@@H]3CCCN3C)nc3c2CN(Cc2cccc4c2CCO4)C3)C[C@@H]1CC#N [1-143]	48%	70%
C#CC[C@H]1CN(c2nc(OC[C@@H]3CCCN3C)nc3c2CN(C2CCc4ccccc42)C3)CCN1C(=O)C=C (stereo partly drawn) [1-144, 1-((2S)-4-(6-(2,3-dihydro-1H-inden-1-yl)-2-(((S)-1-methylpyrrolidin-2-yl)methoxy)-6,7-dihydro-5H-pyrrolo[3,4-d]pyrimidin-4-yl)-2-(prop-2-yn-1-yl)piperazin-1-yl)prop-2-en-1-one]	15%	35%
C=CC(=O)N1CCN(c2nc(OC[C@@H]3CCCN3C)nc3c2CN(C2CCc4ccccc42)C3)C[C@H]1C#N (stereo partly drawn) [1-145]	60%	74%
C=CC(=O)N1CCN(c2nc(CC[C@@H]3CCCN3C)nc3c2CN(C2CCc4ccccc42)C3)C[C@@H]1CC#N (stereo partly drawn) [1-146]	7%	33%
C=CC(=O)N1CCN(c2nc(OC[C@@H]3CCCN3CC(F)F)nc3c2CN(C2CCc4ccccc42)C3)C[C@@H]1CC#N (stereo partly drawn) [1-147]	78%	86%
C=CC(=O)N1C2CCCC1CN(c1nc(OC[C@@H]3CCCN3C)nc3c1CN(Cc1cc(OC)ccc1Cl)C3)C2 [1-148]	0%/ 0%	0%/ 0%

From patent US20210292330A1, “PYRROLIDINE-FUSED HETEROCYCLES” (Erasca, Inc., priority 2020, published 2021)
